Results reported in paper PMC13128454, “Mutant p53 protein accumulation is selectively targetable by proximity-inducing drugs” (Nature Chemical Biology, 2025).
“And” between values parts separate entries of the source, which are not always exact repeats. Equal values may be shown once. Read-outs that look alike come from different tables or passages of the source.

How the values were obtained:
[1] = system: Halo–p53-Y220C ΔTAD–mCherry 293T cells versus parental 293T cells; experiment: flow-cytometry growth competition; format: cell-based; details: for activity / difference in cell survival in competition: 8-day competition; for normalized_mCherry_percentage: Y220C, day 8, normalized to DMSO; for Viability competition, AVERAGE: average of 3 replicates; for EC50: growth competition analyzed on day 10, n = 3, read-out: Competition EC50; for IC50 / Emax: viability competition (sheet 5B); for Emax: lowest average of sheet 5A; for mCherry_percent: 8 days, untreated 39.76
Protocol: (§1) Cells with and without a fluorescent marker (for example, Halo–p53–mCherry) were mixed and the resulting solution was plated in six-well plates or 10-cm dishes at low density; compound was added at varying concentrations. After reaching confluence, cells were passaged and retreated with compound if needed. Otherwise, cells were trypsinized, washed and resuspended in complete growth medium in 96-well plates or tubes for flow cytometry. Untreated cell mixtures were used to establish gates separating the fluorophore^+/− populations. Analysis was conducted on a CytoFLEX LX flow cytometer.

[2] = molecular target: T1, p53-Y220C–PLK1 ternary complex (Homo sapiens, UniProt P04637+P53350, M133L/N239Y/N268D/V203A/Y220C); experiment: NanoBiT ternary complex assay in cotransfected 293T cells; format: cell-based
T1 construct: NLS–LgBiT–p53-Y220C (DBD) and mEGFP–PLK1–SmBiT; expressed in transfected cells; host or cells: 293T cells, transient cotransfection
Source text: After 1 day, the cells were passaged into 384-well plates and treated with varying concentrations of compound.

[3] = system: Halo–p53-R273H (FL)–mCherry 293T cells versus parental 293T cells; experiment: flow-cytometry growth competition; format: cell-based
Protocol: as §1

[4] = system: Calu-1 cells stably expressing Halo–p53-R273H (FL)–mCherry versus parental Calu-1 cells; experiment: flow-cytometry growth competition; format: cell-based; details: sheet S2E
Protocol: as §1

WEE1 = system: WEE1; set-up: method as in PMID 19887545; details: cell-free; read-out: IC50 for cell-free WEE1 inhibition; cited from earlier work
[5] = system: cancer cell lines across DepMap; set-up: method as in DepMap; details: antiproliferative; PRISM OncRef; ref DepMap; read-out: median IC50 across DepMap; cited from earlier work
p53-Y220C = details: cited from earlier work
MFE319 cells = experiment: CellTiter-Glo cell viability; format: cell-based; set-up: p5301_AUC_to_10uM / AUC_rezatapopt: scale not given here; details: MFE319
Protocol: (§2) Cells were plated in 384-well plates (typically 1,500 cells per well) with varying concentrations of compounds, with a total volume of 50 μl per well. CTG reagent was added (25 μl) to the solutions, mixed and read out using an EnVision 2105 multimode plate reader.

DU145 cells = experiment: CellTiter-Glo cell viability; format: cell-based; set-up: AUC_rezatapopt: unit not given beside the values
Protocol: as §2

LNCaP cells = experiment: CellTiter-Glo cell viability; format: cell-based; set-up: AUC_rezatapopt: unit not given beside the values; details: LNCaP
Protocol: as §2

HepG2 cells = experiment: CellTiter-Glo cell viability; format: cell-based; set-up: AUC_rezatapopt: unit not given beside the values
Protocol: as §2

NUGC-3 cells = experiment: CellTiter-Glo cell viability; format: cell-based; set-up: AUC_rezatapopt: unit not given beside the values; details: NUGC3
Protocol: as §2

Huh7 cells = experiment: CellTiter-Glo cell viability; format: cell-based; set-up: AUC_rezatapopt: unit not given beside the values
Protocol: as §2

MCF7 cells = experiment: CellTiter-Glo cell viability; format: cell-based; set-up: AUC_rezatapopt: unit not given beside the values
Protocol: as §2

MFE296 cells = experiment: CellTiter-Glo cell viability; format: cell-based; set-up: AUC_rezatapopt: unit not given beside the values
Protocol: as §2

[6] = 24 h, n = 4, read-out: NanoBiT EC50

O=C(/C=C\n1cnc(-c2cc(C(F)(F)F)cc(C(F)(F)F)c2)n1)NNc1cnccn1 [selinexor]
activity / difference in cell survival in competition [1]: did not observe any activity
normalized_mCherry_percentage ([1]; 1 nM): 98.56%
normalized_mCherry_percentage ([1]; 10 nM): 98.63%
normalized_mCherry_percentage ([1]; 100 nM): 103.2%
normalized_mCherry_percentage ([1]; 1 uM): 99.86%

C=CC(=O)n1c2ccccc2c2cc(C(=O)NCc3cn(CCOCCOCCOCCOCCNC(=O)c4ccc(Nc5ncc6c(n5)N(C5CCCC5)[C@H](CC)C(=O)N6C)c(OC)c4)nn3)ccc21 [KG5-PEG4-BI2536]
activity / difference in cell survival in competition [1]: did not observe any difference in cell survival
normalized_mCherry_percentage ([1]; 1 nM): 98.99%
normalized_mCherry_percentage ([1]; 10 nM): 99.96%
normalized_mCherry_percentage ([1]; 100 nM): 100.2%
normalized_mCherry_percentage ([1]; 1 uM): 99.83%

PEG6
EC50 [2, 6]: 3680 nM
NanoBiT mean_norm ([2]; Concentration 19.5312): 1.005
NanoBiT mean_norm ([2]; Concentration 39.0625): 0.9853
NanoBiT mean_norm ([2]; Concentration 78.125): 1.029
NanoBiT mean_norm ([2]; Concentration 156.25): 1.026
NanoBiT mean_norm ([2]; Concentration 312.5): 1.029
NanoBiT mean_norm ([2]; Concentration 625): 1.011
NanoBiT mean_norm ([2]; Concentration 1250): 1.186
NanoBiT mean_norm ([2]; Concentration 2500): 1.25
NanoBiT mean_norm ([2]; Concentration 5000): 1.542
NanoBiT mean_norm ([2]; Concentration 10000): 1.6853
Max_effect ([2]; sheet 5C): 1.6853
EC50 ([2]; sheet 5C, read-out: EC50): 3680 nM
Viability competition, Replicate 1-3 ([1]; Concentration (nM) 10): 0.5239 and 0.6471 and 0.659
Viability competition, AVERAGE ([1]; Concentration (nM) 10): 0.61
Viability competition, Replicate 1-3 ([1]; Concentration (nM) 100): 0.5384 and 0.6799 and 0.6767
Viability competition, AVERAGE ([1]; Concentration (nM) 100): 0.6317
Viability competition, Replicate 1-3 ([1]; Concentration (nM) 500): 0.4819 and 0.6302 and 0.6328
Viability competition, AVERAGE ([1]; Concentration (nM) 500): 0.5816
Viability competition, Replicate 1-3 ([1]; Concentration (nM) 1000): 0.2653 and 0.295 and 0.3011
Viability competition, AVERAGE ([1]; Concentration (nM) 1000): 0.2871
Viability competition, Replicate 1-3 ([1]; Concentration (nM) 2000): 0.064 and 0.0676 and 0.0785
Viability competition, AVERAGE ([1]; Concentration (nM) 2000): 0.07003
Viability competition, Replicate 1-3 ([1]; Concentration (nM) 5000): 0.1113 and 0.1194 and 0.102
Viability competition, AVERAGE ([1]; Concentration (nM) 5000): 0.1109
EC50 [1]: 900 nM
IC50 [1]: 899 nM
Emax [1]: 0.07003

AP1867-C8-BI2536
activity / difference in cell survival in competition [1]: did not observe any activity
normalized_mCherry_percentage ([1]; 1 nM): 97.6%
normalized_mCherry_percentage ([1]; 10 nM): 98.26%
normalized_mCherry_percentage ([1]; 100 nM): 98.72%
normalized_mCherry_percentage ([1]; 1 uM): 93.37%

CC[C@@H]1C(=O)N(C)c2cnc(Nc3ccc(C(=O)NCCC(=O)N4CCC(Nc5cccc6c5cc(C#CCNc5ccc(S(C)(=O)=O)cc5OC)n6CC(F)(F)F)CC4)cc3OC)nc2N1C1CCCC1 [PMV6-C3-BI2536]
EC50 [2, 6]: 410 nM
NanoBiT mean_norm ([2]; Concentration 19.5312): 1.06
NanoBiT mean_norm ([2]; Concentration 39.0625): 1.117
NanoBiT mean_norm ([2]; Concentration 78.125): 1.1621
NanoBiT mean_norm ([2]; Concentration 156.25): 1.171
NanoBiT mean_norm ([2]; Concentration 312.5): 1.264
NanoBiT mean_norm ([2]; Concentration 625): 1.76
NanoBiT mean_norm ([2]; Concentration 1250): 1.765
NanoBiT mean_norm ([2]; Concentration 2500): 1.801
NanoBiT mean_norm ([2]; Concentration 5000): 1.856
NanoBiT mean_norm ([2]; Concentration 10000): 1.853
Max_effect ([2]; sheet 5C): 1.856
EC50 ([2]; sheet 5C, read-out: EC50): 406 nM
Viability competition, AVERAGE ([1]; Concentration (nM) 10): 0.6993
Viability competition, Replicate 1-3 ([1]; Concentration (nM) 10, listed as C3): 0.706 and 0.7024 and 0.6895
Viability competition, AVERAGE ([1]; Concentration (nM) 100): 0.1737
Viability competition, Replicate 1-3 ([1]; Concentration (nM) 100, listed as C3): 0.1753 and 0.1712 and 0.1746
Viability competition, AVERAGE ([1]; Concentration (nM) 500): 0.1322
Viability competition, Replicate 1-3 ([1]; Concentration (nM) 500, listed as C3): 0.1474 and 0.1221 and 0.127
Viability competition, AVERAGE ([1]; Concentration (nM) 1000): 0.1085
Viability competition, Replicate 1-3 ([1]; Concentration (nM) 1000, listed as C3): 0.1425 and 0.0972 and 0.0859
Viability competition, AVERAGE ([1]; Concentration (nM) 2000): 0.0794
Viability competition, Replicate 1-3 ([1]; Concentration (nM) 2000, listed as C3): 0.0894 and 0.0623 and 0.0865
Viability competition, AVERAGE ([1]; Concentration (nM) 5000): 0.1321
Viability competition, Replicate 1-3 ([1]; Concentration (nM) 5000, listed as C3): 0.1277 and 0.1154 and 0.1531
potency versus p53-01 in the competition assay ([1]; day 10): over 1.5 orders of magnitude
EC50 [1]: 25 nM
IC50 [1]: 25.3 nM
Emax [1]: 0.0794

CC[C@@H]1C(=O)N(C)c2cnc(Nc3ccc(C(=O)NCCOCCOCCOCCOCCC(=O)N4CCC(Nc5cccc6c5cc(C#CCNc5ccc(S(C)(=O)=O)cc5OC)n6CC(F)(F)F)CC4)cc3OC)nc2N1C1CCCC1 [PEG4 (p53-01)]
Viability competition, Replicate 1-3 ([1]; Concentration (nM) 10): 0.6959 and 0.6663 and 0.6621
Viability competition, AVERAGE ([1]; Concentration (nM) 10): 0.6748
Viability competition, Replicate 1-3 ([1]; Concentration (nM) 100): 0.7132 and 0.7004 and 0.6708
Viability competition, AVERAGE ([1]; Concentration (nM) 100): 0.6948
Viability competition, Replicate 1-3 ([1]; Concentration (nM) 500): 0.6679 and 0.6445 and 0.6361
Viability competition, AVERAGE ([1]; Concentration (nM) 500): 0.6495
Viability competition, Replicate 1-3 ([1]; Concentration (nM) 1000): 0.309 and 0.295 and 0.2813
Viability competition, AVERAGE ([1]; Concentration (nM) 1000): 0.2951
Viability competition, Replicate 1-3 ([1]; Concentration (nM) 2000): 0.1194 and 0.1119 and 0.1123
Viability competition, AVERAGE ([1]; Concentration (nM) 2000): 0.1145
Viability competition, Replicate 1-3 ([1]; Concentration (nM) 5000): 0.1698 and 0.1509 and 0.1508
Viability competition, AVERAGE ([1]; Concentration (nM) 5000): 0.1572
IC50 [1]: 851 nM
Emax [1]: 0.1145

C=CCn1c(=O)c2cnc(Nc3ccc(N4CCN(C(=O)CCOCCOCCC(=O)NCCOCCOCCCCCCCl)CC4)cc3)nc2n1-c1cccc(C(C)(C)O)n1 [Halo-PEG2-adavosertib]
EC50 ([3]; Homo sapiens, HEK-293T, Halo–p53-R273H (FL)–mCherry 293T cells as printed, Extended Data Fig. 2f): 41 nM
selective inhibition of proliferation in competition assay ([3]; doses between 100 nM and 1 μM, cells as printed): selectively inhibited the proliferation
mCherry_percent ([1]; 100 nM): 10.55%
mCherry_percent ([1]; 1 uM): 4.24%
mCherry_percent ([1]; 10 uM): 26.57%

CC[C@@H]1C(=O)N(C)c2cnc(Nc3ccc(C(=O)NCCOCCOCCC(=O)NCCOCCOCCCCCCCl)cc3OC)nc2N1C1CCCC1 [HLDA-131]
mCherry_percent ([4]; 1 nM): 83.77%
mCherry_percent ([4]; 10 nM): 55.02%
mCherry_percent ([4]; 100 nM): 4.8%
mCherry_percent ([4]; 1 uM): 3.52%

C=CCn1c(=O)c2cnc(Nc3ccc(N4CCN(C)CC4)cc3)nc2n1-c1cccc(C(C)(C)O)n1 [adavosertib]
IC50 (WEE1): 5.2 nM
IC50 [5]: 348 nM

CNC(=O)c1ccc(NCC#Cc2cc3c(N[C@@H]4CCN(C)C[C@@H]4F)cccc3n2CC(F)(F)F)c(OC)c1 [rezatapopt]
Kd (p53-Y220C): ~2.5 nM
AUC_rezatapopt (MFE319 cells): 0.8525
AUC_rezatapopt (DU145 cells): 1
AUC_rezatapopt (LNCaP cells): 0.9713
AUC_rezatapopt (HepG2 cells): 0.9433
AUC_rezatapopt (NUGC-3 cells): 0.5908
AUC_rezatapopt (Huh7 cells): 0.6525
AUC_rezatapopt (MCF7 cells): 0.9331
AUC_rezatapopt (MFE296 cells): 0.5683
